Results: the supplement of paper PMC10307832

Experiments:
Experiment in all cases: relative viability (nuclei count vs DMSO), 5 days (fraction); higher = more cells survive
NCI-H661 = system: NCI-H661
How it was run: (§1)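 Relative viability equals treated-well nuclei counts divided by vehicle-well nuclei counts. Counts came from 4× images of lung cancer cell lines grown in 1536-well plates for 5 days after pin-tool dosing on the day after seeding. Dosing used one drug alone or a fixed anchor-drug dose plus five library-drug doses (not always all listed) in √10 steps, and values are medians of duplicate plates.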

PC-14 = system: PC-14
How it was run: as §1

HCC-366 = system: HCC-366
How it was run: as §1

CAL-12T = system: CAL-12T
How it was run: as §1

SW 900 = system: SW 900
How it was run: as §1

NCI-H2009 = system: NCI-H2009
How it was run: as §1

NCI-H1437 = system: NCI-H1437
How it was run: as §1

NCI-H1666 = system: NCI-H1666
How it was run: as §1

NCI-H460 = system: NCI-H460
How it was run: as §1

201T = system: 201T
How it was run: as §1

COR-L 105 = system: COR-L 105
How it was run: as §1

NCI-H3122 = system: NCI-H3122
How it was run: as §1

HARA = system: HARA
How it was run: as §1

LOU-NH91 = system: LOU-NH91
How it was run: as §1

LK-2 = system: LK-2
How it was run: as §1

BEN = system: BEN
How it was run: as §1

NCI-H441 = system: NCI-H441
How it was run: as §1

NCI-H2170 = system: NCI-H2170
How it was run: as §1

NCI-H1650 = system: NCI-H1650
How it was run: as §1

EKVX = system: EKVX
How it was run: as §1

Work on `CCN(CC)CCCCNc1ncc2cc(-c3cc(OC)cc(OC)c3)c(NC(=O)NC(C)(C)C)nc2n1` + Nc1nc2[nH]cc(CCc3ccc(C(=O)N[C@@H](CCC(=O)O)C(=O)O)cc3)c2c(=O)[nH]1 [Pemetrexed] (partner 0.2 µM) yielded a relative viability (NCI-H661; first compound 0.01 µM) of 0.968, a relative viability (NCI-H661; first compound 0.03162 µM) of 0.886 and a relative viability (NCI-H661; first compound 0.1 µM) of 0.961. It also gave a relative viability (NCI-H661; first compound 0.3162 µM) of 0.986, a relative viability (NCI-H661; first compound 1 µM) of 0.95 and a relative viability (PC-14; first compound 0.01 µM) of 0.123. It also gave a relative viability (PC-14; first compound 0.03162 µM) of 0.117, a relative viability (PC-14; first compound 0.1 µM) of 0.184 and a relative viability (PC-14; first compound 0.3162 µM) of 0.139. For the same compound, the relative viability (PC-14; first compound 1 µM) was 0.141, the relative viability (HCC-366; first compound 0.01 µM) was 0.164 and the relative viability (HCC-366; first compound 0.03162 µM) was 0.172. The relative viability (HCC-366; first compound 0.1 µM) was 0.19, the relative viability (HCC-366; first compound 0.3162 µM) was 0.172 and the relative viability (HCC-366; first compound 1 µM) was 0.191. The relative viability (CAL-12T; first compound 0.01 µM) was 1.4, the relative viability (CAL-12T; first compound 0.03162 µM) was 1.2 and the relative viability (CAL-12T; first compound 0.1 µM) was 1.53. It also gave a relative viability (CAL-12T; first compound 0.3162 µM) of 1.44, a relative viability (CAL-12T; first compound 1 µM) of 1.1 and a relative viability (SW 900; first compound 0.01 µM) of 0.529. It also gave a relative viability (SW 900; first compound 0.03162 µM) of 0.461, a relative viability (SW 900; first compound 0.1 µM) of 0.517 and a relative viability (SW 900; first compound 0.3162 µM) of 0.509. For the same compound, the relative viability (SW 900; first compound 1 µM) was 0.309, the relative viability (NCI-H2009; first compound 0.01 µM) was 1.12 and the relative viability (NCI-H2009; first compound 0.03162 µM) was 1.03. It also gave a relative viability (NCI-H2009; first compound 0.1 µM) of 1.08, a relative viability (NCI-H2009; first compound 0.3162 µM) of 1.18 and a relative viability (NCI-H2009; first compound 1 µM) of 0.988. The relative viability (NCI-H1437; first compound 0.01 µM) was 0.332, the relative viability (NCI-H1437; first compound 0.03162 µM) was 0.309 and the relative viability (NCI-H1437; first compound 0.1 µM) was 0.324. It also gave a relative viability (NCI-H1437; first compound 0.3162 µM) of 0.328, a relative viability (NCI-H1437; first compound 1 µM) of 0.381 and a relative viability (NCI-H1666; first compound 0.01 µM) of 0.814. For the same compound, the relative viability (NCI-H1666; first compound 0.03162 µM) was 0.796, the relative viability (NCI-H1666; first compound 0.1 µM) was 0.783 and the relative viability (NCI-H1666; first compound 0.3162 µM) was 0.942. For the same compound, the relative viability (NCI-H1666; first compound 1 µM) was 0.808, the relative viability (NCI-H460; first compound 0.01 µM) was 0.0558 and the relative viability (NCI-H460; first compound 0.03162 µM) was 0.0576. It also gave a relative viability (NCI-H460; first compound 0.1 µM) of 0.0567, a relative viability (NCI-H460; first compound 0.3162 µM) of 0.056 and a relative viability (NCI-H460; first compound 1 µM) of 0.0563. For the same compound, the relative viability (201T; first compound 0.01 µM) was 0.351, the relative viability (201T; first compound 0.03162 µM) was 0.315 and the relative viability (201T; first compound 0.1 µM) was 0.331. For the same compound, the relative viability (201T; first compound 0.3162 µM) was 0.349, the relative viability (201T; first compound 1 µM) was 0.313 and the relative viability (COR-L 105; first compound 0.01 µM) was 1.23. The relative viability (COR-L 105; first compound 0.03162 µM) was 1.12, the relative viability (COR-L 105; first compound 0.1 µM) was 1.18 and the relative viability (COR-L 105; first compound 0.3162 µM) was 1.47. The relative viability (COR-L 105; first compound 1 µM) was 1.05, the relative viability (NCI-H3122; first compound 0.01 µM) was 0.208 and the relative viability (NCI-H3122; first compound 0.03162 µM) was 0.186. It also gave a relative viability (NCI-H3122; first compound 0.1 µM) of 0.208, a relative viability (NCI-H3122; first compound 0.3162 µM) of 0.203 and a relative viability (NCI-H3122; first compound 1 µM) of 0.223. For the same compound, the relative viability (HARA; first compound 0.01 µM) was 0.202, the relative viability (HARA; first compound 0.03162 µM) was 0.234 and the relative viability (HARA; first compound 0.1 µM) was 0.279. It also gave a relative viability (HARA; first compound 0.3162 µM) of 0.22, a relative viability (HARA; first compound 1 µM) of 0.281 and a relative viability (LOU-NH91; first compound 0.01 µM) of 0.406. The relative viability (LOU-NH91; first compound 0.03162 µM) was 0.376, the relative viability (LOU-NH91; first compound 0.1 µM) was 0.641 and the relative viability (LOU-NH91; first compound 0.3162 µM) was 0.388. It also gave a relative viability (LOU-NH91; first compound 1 µM) of 0.433, a relative viability (LK-2; first compound 0.01 µM) of 0.267 and a relative viability (LK-2; first compound 0.03162 µM) of 0.272. For the same compound, the relative viability (LK-2; first compound 0.1 µM) was 0.273, the relative viability (LK-2; first compound 0.3162 µM) was 0.149 and the relative viability (LK-2; first compound 1 µM) was 0.145. It also gave a relative viability (BEN; first compound 0.01 µM) of 0.664, a relative viability (BEN; first compound 0.03162 µM) of 0.681 and a relative viability (BEN; first compound 0.1 µM) of 0.826. For the same compound, the relative viability (BEN; first compound 0.3162 µM) was 0.77, the relative viability (BEN; first compound 1 µM) was 0.69 and the relative viability (NCI-H441; first compound 0.01 µM) was 0.257. For the same compound, the relative viability (NCI-H441; first compound 0.03162 µM) was 0.232, the relative viability (NCI-H441; first compound 0.1 µM) was 0.26 and the relative viability (NCI-H441; first compound 0.3162 µM) was 0.249. For the same compound, the relative viability (NCI-H441; first compound 1 µM) was 0.25, the relative viability (NCI-H2170; first compound 0.01 µM) was 0.251 and the relative viability (NCI-H2170; first compound 0.03162 µM) was 0.293. The relative viability (NCI-H2170; first compound 0.1 µM) was 0.262, the relative viability (NCI-H2170; first compound 0.3162 µM) was 0.238 and the relative viability (NCI-H2170; first compound 1 µM) was 0.275. It also gave a relative viability (NCI-H1650; first compound 0.01 µM) of 0.398, a relative viability (NCI-H1650; first compound 0.03162 µM) of 0.377 and a relative viability (NCI-H1650; first compound 0.1 µM) of 0.352. The relative viability (NCI-H1650; first compound 0.3162 µM) was 0.326, the relative viability (NCI-H1650; first compound 1 µM) was 0.344 and the relative viability (EKVX; first compound 0.03162 µM) was 0.354. It also gave a relative viability (EKVX; first compound 0.1 µM) of 0.362, a relative viability (EKVX; first compound 0.3162 µM) of 0.475 and a relative viability (EKVX; first compound 1 µM) of 0.379.
